Earlier results, collected in publication PMC8679839, “Interleukin‐2‐inducible T‐cell kinase (Itk) signaling regulates potent noncanonical regulatory T cells” (Clinical and Translational Medicine, 2021).

Tested on: Tregs
Source text: Tregs are critical for the maintenance of tolerance, and transfer of Treg cells can ameliorate GVHD by restoring defective tolerance mechanisms.[41] One of the biggest challenges is to isolate functional Tregs in large numbers for immunotherapy.[42] This challenge is due to the low number of Tregs in peripheral blood.[4] Given their low numbers in the blood, it is difficult to obtain enough Tregs in the clinic for use as a therapy. If the number of collected canTregs and ncTregs could be increased for use in GVHD patients, such patients could be better protected from GVHD and other autoimmune ...

**Q.** What does the source list for CO[C@H]1C[C@@H]2CC[C@@H](C)[C@@](O)(O2)C(=O)C(=O)N2CCCC[C@H]2C(=O)O[C@H]([C@H](C)C[C@@H]2CC[C@@H](O)[C@H](OC)C2)CC(=O)[C@H](C)/C=C(\C)[C@@H](O)[C@@H](OC)C(=O)[C@H](C)C[C@H](C)/C=C/C=C/C=C/1C [rapamycin]?
**A.** Treg number after in vitro expansion: increases Tregs; Treg suppressive function after in vitro expansion: reduces suppressive function
